Test results as given in ChEMBL document CHEMBL1201862, “PubChem BioAssay data set” (2004).
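Grown in 96-well plates, cells were treated for 48 hours with each compound at five concentrations. Insufficient inhibition: endpoint recorded as highest concentration tested. Abbreviation: GI50, concentration required for 50% inhibition of growth.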 The source made the active and inactive calls. Cut-off read from the data, not from the text of the source: active = GI50 up to about 1.1 µM and inactive = higher. Where a SMILES comes first, the peptide text is derived from it.

Legend:
Experiment in all cases: NCI tumour cell line growth inhibition, 48 h
PC-3 = test system: PC-3
HCT-15 = test system: HCT-15
KM12 = test system: KM12
RPMI-8226 = test system: RPMI-8226
NCI-H226 = test system: NCI-H226
SN12C = test system: SN12C
NCI-H522 = test system: NCI-H522
DU-145 = test system: DU-145
SF-539 = test system: SF-539
Malme-3M = test system: Malme-3M
MDA-MB-231 = test system: MDA-MB-231
SK-OV-3 = test system: SK-OV-3
MDA-N = test system: MDA-N
SNB-19 = test system: SNB-19
RXF 393 = test system: RXF 393
MDA-MB-435 = test system: MDA-MB-435
HCT-116 = test system: HCT-116
LOX IMVI = test system: LOX IMVI
CCRF-CEM = test system: CCRF-CEM

Oc1ccccc1/C=N/N1C(=S)N(C23CC4CC(CC(C4)C2)C3)C(=N\c2ccccc2)/C1=N/c1ccccc1
GI50 (PC-3): 8.38 µM (inactive)
GI50 (HCT-15): > 100 µM
GI50 (KM12): > 100 µM (inactive)
GI50 (RPMI-8226): 6.15 µM (inactive)
GI50 (NCI-H226): > 100 µM (inactive)
GI50 (SN12C): > 100 µM (inactive)
GI50 (NCI-H522): 12.8 µM (inactive)
GI50 (DU-145): > 100 µM (inactive)
GI50 (SF-539): > 100 µM (inactive)
GI50 (Malme-3M): > 100 µM (inactive)
GI50 (MDA-MB-231): 8.04 µM (inactive)
GI50 (SK-OV-3): > 100 µM (inactive)
GI50 (MDA-N): > 100 µM (inactive)
GI50 (SNB-19): 77.4 µM (inactive)
GI50 (RXF 393): 82.8 µM (inactive)
GI50 (MDA-MB-435): > 100 µM (inactive)
GI50 (HCT-116): 14.1 µM (inactive)

CC(=O)c1c2c(cc3c1CC1(Cc4cc5c(cc4C1=O)CCC5)C3)CCC2 (configuration not stated)
GI50 (PC-3): 13.1 µM (inactive)
GI50 (HCT-15): 63 µM
GI50 (LOX IMVI): 38.3 µM (inactive)
GI50 (KM12): 53.5 µM (inactive)
GI50 (CCRF-CEM): 14.6 µM (inactive)
GI50 (RPMI-8226): 10.5 µM (inactive)
GI50 (NCI-H226): 34.3 µM (inactive)
GI50 (SN12C): > 61.4 µM (inactive)
GI50 (NCI-H522): 22.2 µM (inactive)
GI50 (DU-145): > 72.3 µM (inactive)
GI50 (SF-539): > 100 µM (inactive)
GI50 (Malme-3M): 39.1 µM (inactive)
GI50 (MDA-MB-231): 40.2 µM (inactive)
GI50 (SK-OV-3): > 87.7 µM (inactive)
GI50 (MDA-N): > 87.1 µM (inactive)
GI50 (SNB-19): > 100 µM (inactive)
GI50 (MDA-MB-435): 48.9 µM (inactive)
GI50 (HCT-116): 9.12 µM (inactive)

COc1cc(/C=C\C(=O)O)ccc1OCc1ccccc1
GI50 (PC-3): > 100 µM (inactive)
GI50 (HCT-15): > 100 µM
GI50 (LOX IMVI): > 100 µM (inactive)
GI50 (KM12): 0.217 µM (active)
GI50 (CCRF-CEM): > 100 µM (inactive)
GI50 (RPMI-8226): > 100 µM (inactive)
GI50 (SN12C): > 100 µM (inactive)
GI50 (NCI-H522): > 100 µM (inactive)
GI50 (DU-145): > 100 µM (inactive)
GI50 (SF-539): > 100 µM (inactive)
GI50 (Malme-3M): 0.053 µM (active)
GI50 (MDA-MB-231): > 100 µM (inactive)
GI50 (SK-OV-3): > 100 µM (inactive)
GI50 (MDA-N): > 100 µM (inactive)
GI50 (SNB-19): > 100 µM (inactive)
GI50 (RXF 393): > 100 µM (inactive)
GI50 (MDA-MB-435): > 100 µM (inactive)
GI50 (HCT-116): > 100 µM (inactive)

NC(=O)Cn1c(=O)oc2cc(C(=O)CN3CCOCC3)ccc21
GI50 (PC-3): > 100 µM (inactive)
GI50 (LOX IMVI): > 100 µM (inactive)
GI50 (KM12): > 100 µM (inactive)
GI50 (CCRF-CEM): > 100 µM (inactive)
GI50 (RPMI-8226): > 100 µM (inactive)
GI50 (NCI-H226): > 100 µM (inactive)
GI50 (SN12C): > 100 µM (inactive)
GI50 (DU-145): > 100 µM (inactive)
GI50 (SF-539): > 100 µM (inactive)
GI50 (Malme-3M): > 100 µM (inactive)
GI50 (MDA-MB-231): > 100 µM (inactive)
GI50 (SK-OV-3): > 100 µM (inactive)
GI50 (MDA-N): > 100 µM (inactive)
GI50 (SNB-19): > 100 µM (inactive)
GI50 (RXF 393): > 100 µM (inactive)
GI50 (MDA-MB-435): > 100 µM (inactive)
GI50 (HCT-116): > 100 µM (inactive)

O=C1C(Nc2ccccc2)=CC2=NCCc3n[nH]c1c32
GI50 (PC-3): 33.1 µM (inactive)
GI50 (HCT-15): 19.8 µM
GI50 (LOX IMVI): 13.9 µM (inactive)
GI50 (KM12): 20.4 µM (inactive)
GI50 (CCRF-CEM): 22.3 µM (inactive)
GI50 (RPMI-8226): 26.4 µM (inactive)
GI50 (SN12C): 34.8 µM (inactive)
GI50 (NCI-H522): 32.5 µM (inactive)
GI50 (DU-145): 64 µM (inactive)
GI50 (SF-539): 35.7 µM (inactive)
GI50 (Malme-3M): 14.4 µM (inactive)
GI50 (MDA-MB-231): 34.8 µM (inactive)
GI50 (SK-OV-3): > 100 µM (inactive)
GI50 (MDA-N): 16.3 µM (inactive)
GI50 (SNB-19): 63.8 µM (inactive)
GI50 (RXF 393): > 100 µM (inactive)
GI50 (MDA-MB-435): 17.2 µM (inactive)
GI50 (HCT-116): 18 µM (inactive)

COc1ccc(Nc2nc3ccccc3nc2C(=O)O)cc1
GI50 (PC-3): > 100 µM (inactive)
GI50 (HCT-15): 36.1 µM
GI50 (LOX IMVI): 60.1 µM (inactive)
GI50 (KM12): 26.2 µM (inactive)
GI50 (CCRF-CEM): 44 µM (inactive)
GI50 (SN12C): 80.2 µM (inactive)
GI50 (NCI-H522): 92 µM (inactive)
GI50 (DU-145): 76.7 µM (inactive)
GI50 (SF-539): > 100 µM (inactive)
GI50 (Malme-3M): > 100 µM (inactive)
GI50 (MDA-MB-231): > 100 µM (inactive)
GI50 (SK-OV-3): 9.04 µM (inactive)
GI50 (MDA-N): 92.9 µM (inactive)
GI50 (SNB-19): > 100 µM (inactive)
GI50 (RXF 393): > 100 µM (inactive)
GI50 (MDA-MB-435): > 100 µM (inactive)
GI50 (HCT-116): 58.6 µM (inactive)

CC(C)OP(=O)(c1ccccc1)c1ccc2c(c1)OCCOCCOCCOCCO2 (configuration not stated)
GI50 (PC-3): > 100 µM (inactive)
GI50 (HCT-15): > 100 µM
GI50 (LOX IMVI): > 100 µM (inactive)
GI50 (KM12): > 100 µM (inactive)
GI50 (CCRF-CEM): > 100 µM (inactive)
GI50 (RPMI-8226): > 100 µM (inactive)
GI50 (NCI-H226): > 100 µM (inactive)
GI50 (SN12C): > 100 µM (inactive)
GI50 (NCI-H522): 84.7 µM (inactive)
GI50 (DU-145): > 100 µM (inactive)
GI50 (SF-539): > 100 µM (inactive)
GI50 (Malme-3M): > 100 µM (inactive)
GI50 (MDA-MB-231): > 100 µM (inactive)
GI50 (SK-OV-3): > 100 µM (inactive)
GI50 (MDA-N): > 100 µM (inactive)
GI50 (SNB-19): > 100 µM (inactive)
GI50 (MDA-MB-435): > 100 µM (inactive)
GI50 (HCT-116): > 100 µM (inactive)

Nc1ccc(-c2nc3cc(F)ccc3s2)cc1
GI50 (PC-3): 16.5 µM (inactive)
GI50 (HCT-15): 17.6 µM
GI50 (LOX IMVI): 45.1 µM (inactive)
GI50 (KM12): > 68.4 µM (inactive)
GI50 (CCRF-CEM): > 45.6 µM (inactive)
GI50 (RPMI-8226): > 100 µM (inactive)
GI50 (SN12C): > 100 µM (inactive)
GI50 (NCI-H522): 53.5 µM (inactive)
GI50 (DU-145): 30.5 µM (inactive)
GI50 (SF-539): > 66.1 µM (inactive)
GI50 (Malme-3M): > 100 µM (inactive)
GI50 (MDA-MB-231): 22.5 µM (inactive)
GI50 (SK-OV-3): > 94.2 µM (inactive)
GI50 (MDA-N): > 100 µM (inactive)
GI50 (SNB-19): > 100 µM (inactive)
GI50 (RXF 393): 32.3 µM (inactive)
GI50 (MDA-MB-435): > 100 µM (inactive)
GI50 (HCT-116): > 69.8 µM (inactive)

CCC(C)C(NC(=O)C1CCCN1C(=O)C(CC(C)C)NC(=O)C(CC(C)C)NC(=O)C(N)CC(C)C)C(=O)NC(C(=O)NCC(=O)NC(CC(N)=O)C(=O)NC(CC(C)C)C(=O)NC(CC(C)C)C(=O)NC(CC(C)C)C(N)=O)C(C)C (configuration not stated) (H-LLLPIVGNLLL-NH2; configuration not given here)
GI50 (PC-3): > 50 µM (inactive)
GI50 (HCT-15): > 50 µM
GI50 (LOX IMVI): > 50 µM (inactive)
GI50 (KM12): > 50 µM (inactive)
GI50 (CCRF-CEM): > 50 µM (inactive)
GI50 (RPMI-8226): > 50 µM (inactive)
GI50 (NCI-H226): > 50 µM (inactive)
GI50 (SN12C): > 50 µM (inactive)
GI50 (NCI-H522): > 50 µM (inactive)
GI50 (DU-145): > 50 µM (inactive)
GI50 (SF-539): > 50 µM (inactive)
GI50 (Malme-3M): > 50 µM (inactive)
GI50 (MDA-MB-231): > 50 µM (inactive)
GI50 (SK-OV-3): > 50 µM (inactive)
GI50 (MDA-N): > 50 µM (inactive)
GI50 (SNB-19): > 50 µM (inactive)
GI50 (MDA-MB-435): > 50 µM (inactive)
GI50 (HCT-116): > 50 µM (inactive)

O=C1/C(=C/c2ccc(Cl)cc2)Oc2cc(O)ccc21 [6-HYDROXY-4'-CHLORO AURONE]
GI50 (PC-3): 30.2 µM (inactive)
GI50 (HCT-15): 32.6 µM
GI50 (KM12): 38.5 µM (inactive)
GI50 (CCRF-CEM): 20.2 µM (inactive)
GI50 (RPMI-8226): 30.6 µM (inactive)
GI50 (NCI-H226): 28.2 µM (inactive)
GI50 (SN12C): 29.8 µM (inactive)
GI50 (NCI-H522): 23.8 µM (inactive)
GI50 (DU-145): 41.4 µM (inactive)
GI50 (SF-539): 21.9 µM (inactive)
GI50 (MDA-MB-231): 34.6 µM (inactive)
GI50 (SK-OV-3): 30.6 µM (inactive)
GI50 (MDA-N): 30.2 µM (inactive)
GI50 (SNB-19): 26.6 µM (inactive)
GI50 (RXF 393): 39.4 µM (inactive)
GI50 (MDA-MB-435): 36.1 µM (inactive)
GI50 (HCT-116): 30.5 µM (inactive)

CC1(C)CC(O)CC(C)(C)N1O [TEMPOL HYDROXYLAMINE]
GI50 (PC-3): > 100 µM (inactive)
GI50 (HCT-15): > 100 µM
GI50 (KM12): > 100 µM (inactive)
GI50 (CCRF-CEM): > 100 µM (inactive)
GI50 (RPMI-8226): > 100 µM (inactive)
GI50 (SN12C): > 100 µM (inactive)
GI50 (DU-145): > 100 µM (inactive)
GI50 (SF-539): > 100 µM (inactive)
GI50 (Malme-3M): > 100 µM (inactive)
GI50 (MDA-MB-231): > 100 µM (inactive)
GI50 (SK-OV-3): > 100 µM (inactive)
GI50 (MDA-N): > 100 µM (inactive)
GI50 (SNB-19): > 100 µM (inactive)
GI50 (RXF 393): > 100 µM (inactive)
GI50 (MDA-MB-435): > 100 µM (inactive)
GI50 (HCT-116): > 100 µM (inactive)
